This is an account of results in US20210330611A1, “THERAPY FOR NEUROLOGICAL DISEASES/DISORDERS” (priority 2020, published 2021).

In data set [1] the test system is fibrin- and LPS-induced microglia activation. As to the kind of experiment: cells. Format: cell-based, rat.
For data set [2], the system named is fibrin-induced microglia activation. The data set can be described thus: Image-based assay of fibrin-induced microglia activation (HTS and dose response). Format: cell-based, rat. Particulars: for inhibition at 10 µM: Rattus norvegicus, Microglia, read-out: Fibrin % inhibition.
Data set [3] relates to LPS-induced microglia activation. The data set can be described thus: Image-based assay of LPS-induced microglia activation (HTS and dose response). Format: cell-based, rat. The settings on record: for inhibition at 10 µM: Rattus norvegicus, Microglia, read-out: LPS % inhibition.
Data set [4] concerns primary rat microglia.
Where [5] appears, read: quadrant by fibrin and LPS inhibition, HTS at 10 μM.
Where [6] appears, read: primary microglia HTS, fibrin stimulation, compounds at 10 μM.
The mark [7] stands for this setting: primary microglia HTS, LPS stimulation, compounds at 10 μM.
[8] abbreviates: primary microglia HTS, LPS stimulation, compounds at 10 μM, 10 µM.
Setting [9] is: quadrant by fibrin and LPS inhibition in HTS of 1907 compounds.
[10] abbreviates: primary microglia HTS, fibrin stimulation, increased cell size (>800 μm^2) as marker of activation.
Setting [11] is: 48 h, primary microglia HTS, LPS stimulation, increased cell size (>800 μm^2) as marker of activation.
Setting [12] is: primary HTS, 10 μM, fibrin-stimulated primary microglia.
Setting [13] is: primary HTS, 10 μM, LPS-stimulated primary microglia.
Where [14] appears, read: HTS of 1907 compounds, quadrant by fibrin and LPS inhibition.
Where [15] appears, read: primary microglia HTS, 10 μM, LPS-stimulated, cell size >800 μm^2 as marker of activation.

The structures appear in SMILES notation. Where “and” joins values, the source holds several entries; their conditions need not be identical. Equal values may be shown once. Where a name gives a salt, the structure may show the parent alone. Read-outs that look alike come from different tables or passages of the source.

Regarding `CNC[C@H](O)c1ccc(O)c(O)c1.O=C(O)C(O)C(O)C(=O)O`, the “Quadrant (FIG. 5b)” value in data set [1] is reported as “Q4”. In data set [2] (10 µM), the Fibrin % inhibition is given as 35%. The LPS % inhibition in data set [3] (10 µM) stood at 19%. In addition, the “LPS % cell toxicity” value in data set [4] was determined as 0%.

On to `CC(NC(C)(C)C)C(=O)c1cccc(Cl)c1.Cl` (centres unmarked), for which the “Quadrant (FIG. 5b)” value in data set [1] is reported as “Q4”. The Fibrin % inhibition in data set [2] (10 µM) is recorded as −15%. Further, the LPS % inhibition in data set [3] (10 µM) is 27%. Further, in data set [4], the “LPS % cell toxicity” value was 2%.

Regarding `NCCS(=O)(=O)O` [2-Aminoethanesulfonic Acid], the “Quadrant (FIG. 5b)” value in data set [1] (setting [5]) is given as “Q4”. For the same molecule, the inhibition at 10 µM in data set [2] (setting [6]) was -13%; in data set [3] (setting [7]), 19%. Further, the “LPS % cell toxicity” value in data set [4] (rat) was determined as 0%.

Take `CC(=O)N[C@@H](CS)C(=O)O` [Acetylcysteine]: the “Quadrant (FIG. 5b)” value in data set [1] (setting [5]) is on record as “Q4”. The inhibition at 10 µM in data set [3] (setting [7]) was determined as 7%. For the same molecule, the LPS % inhibition in data set [3] (setting [8]) came to 13%. Moreover, in data set [4] (rat), the “LPS % cell toxicity” value is given as 0%.

With `CN(C)c1nc(N(C)C)nc(N(C)C)n1` [Altretamine], in data set [1] (setting [5]), the “Quadrant (FIG. 5b)” value was “Q4”. Moreover, the values for the inhibition at 10 µM in data set [2] (setting [6]) and in data set [3] (setting [7]) were -29% and 16%, respectively. Further, the “LPS % cell toxicity” value in data set [4] (rat) is 0%.

Regarding `NC12CC3CC(CC(C3)C1)C2` [Amantadine], the “Quadrant (FIG. 5b)” value in data set [1] (setting [5]) is given as “Q4”. The LPS % inhibition in data set [3] (setting [8]) is 3% and −5%. In data set [4] (rat), the “LPS % cell toxicity” value was found to be 0%.

As to `CCOC(=O)C1=C(COCCN)NC(C)=C(C(=O)OC)C1c1ccccc1Cl` (centres unmarked) [Amlodipine], the figures for the “Quadrant (FIG. 5b)” value in data set [1] (setting [9]) and in data set [1] (setting [5]) were “Q1” and “Q4”, respectively. The inhibition at 10 µM was -17% in data set [2] (setting [6]), -29% in data set [2] (setting [10]), 59% in data set [3] (setting [11]) and 36% in data set [3] (setting [7]). The “LPS % cell toxicity” value in data set [4] (rat) was determined as 2%.

As to `CCN(CC)Cc1cc(Nc2ccnc3cc(Cl)ccc23)ccc1O` [Amodiaquine Dihydrochloride], the “Quadrant (FIG. 5b)” value in data set [1] (setting [9]) is recorded as “Q1”. The inhibition at 10 µM in data set [2] (setting [10]) came out at 4%; in data set [3] (setting [11]), 114%. For the same molecule, the “LPS % cell toxicity” value in data set [4] (rat) stood at 85%.

Consider `CC1CNc2c(cccc2S(=O)(=O)N[C@@H](CCCNC(=N)N)C(=O)N2CC[C@@H](C)C[C@@H]2C(=O)O)C1` (some centres unmarked) [Argatroban], for which the “Quadrant (FIG. 5b)” value in data set [1] (setting [5]) is listed as “Q4”. The inhibition at 10 µM in data set [2] (setting [6]) is -10%; in data set [3] (setting [7]), 8%. In addition, the “LPS % cell toxicity” value in data set [4] (rat) was 0%.

Take `O=C(CCCl)NCc1ccccc1` [Beclamide]: the “Quadrant (FIG. 5b)” value in data set [1] (setting [5]) is listed as “Q4”. Further, the inhibition at 10 µM in data set [2] (setting [6]) was 19%; in data set [3] (setting [7]) it was 2%. Also, the “LPS % cell toxicity” value in data set [4] (rat) came out at 0%.

As for `OC(CCN1CCCCC1)(c1ccccc1)C1CC2C=CC1C2` (centres unmarked) [Biperiden], in data set [1] (primary HTS, 10 μM), the “Quadrant (FIG. 5b)” value is reported as “Q4”. In addition, the inhibition at 10 µM in data set [2] (setting [12]) was determined as 2%; in data set [3] (setting [13]), 17%. Further, the “LPS % cell toxicity” value in data set [4] (rat) was found to be 1%.

With `CCN(CC)CCNC(=O)c1cc(Br)c(N)cc1OC` [Bromopride], in data set [1] (primary HTS, 10 μM), the “Quadrant (FIG. 5b)” value is “Q4”. For the same molecule, the inhibition at 10 µM in data set [2] (setting [12]) was -2%; in data set [3] (setting [13]) it was 4%. Besides, the “LPS % cell toxicity” value in data set [4] (rat) was 0%.

For the molecule `O=C(CCCN1CCC(O)(c2ccc(Br)cc2)CC1)c1ccc(F)cc1` [Bromperidol], the “Quadrant (FIG. 5b)” value in data set [1] (primary HTS, 10 μM) was “Q4”. For the same molecule, the inhibition at 10 µM in data set [2] (setting [12]) was -6%; in data set [3] (setting [13]), 7%. The “LPS % cell toxicity” value in data set [4] (rat) was determined as 0%.

Regarding `Cn1c(=O)c2c(ncn2C)n(C)c1=O` [Caffeine], the “Quadrant (FIG. 5b)” value in data set [1] is “Q4”. The inhibition at 10 µM was 2% in data set [2] and 10% in data set [3]. Also, the “LPS % cell toxicity” value in data set [4] (rat) is 0%.

Turning to `C[C@]12CCC(=O)C=C1C=C[C@@H]1[C@@H]2CC[C@@]2(C)[C@H]1CC[C@@]2(O)CCC(=O)O` [Canrenoic Acid, Potassium Salt], the “Quadrant (FIG. 5b)” value in data set [1] (primary HTS, 10 μM) is reported as “Q4”. The inhibition at 10 µM in data set [2] (setting [12]) was -8%; in data set [3] (setting [13]), 8%. Moreover, the “LPS % cell toxicity” value in data set [4] (rat) stood at 0%.

Take `O=NN(CCCl)C(=O)NCCCl` [Carmustine]: the “Quadrant (FIG. 5b)” value in data set [1] (primary HTS, 10 μM) is “Q4”. Further, the inhibition at 10 µM in data set [2] (setting [12]) was 1%; in data set [3] (setting [13]), 9%. For the same molecule, the “LPS % cell toxicity” value in data set [4] (rat) was 0%.

With `O=C(N[C@H](CO)[C@H](O)c1ccc([N+](=O)[O-])cc1)C(Cl)Cl` [Chloramphenicol], the “Quadrant (FIG. 5b)” value in data set [1] (primary HTS, 10 μM) is given as “Q4”. For the same molecule, the inhibition at 10 µM stood at 19% in data set [2] (setting [12]) and 6% in data set [3] (setting [13]). Further, the “LPS % cell toxicity” value in data set [4] (rat) was determined as 0%.

For the molecule `C[C@@H]1C[C@@H]([C@H](O)CC2CC(=O)NC(=O)C2)C(=O)[C@@H](C)C1` [Cycloheximide], the “Quadrant (FIG. 5b)” value in data set [1] (setting [9]) was “Q2”. In addition, the results for the inhibition at 10 µM in data set [2] (setting [10]) and in data set [3] (setting [11]) were 108% and 123%, respectively. Moreover, the “LPS % cell toxicity” value in data set [4] (rat) amounted to 45%.

Take `CC(C)NC[C@@H](O)COc1cccc2ccccc12` [Dexpropranolol Hydrochloride]: the “Quadrant (FIG. 5b)” value in data set [1] is reported as “Q4”. Moreover, the inhibition at 10 µM in data set [2] is -21%; in data set [3], 19%. The “LPS % cell toxicity” value in data set [4] (rat) is given as 0%.

Turning to `Cc1c(C(N)=O)cc([N+](=O)[O-])cc1[N+](=O)[O-]` [Dinitolmide], the “Quadrant (FIG. 5b)” value in data set [1] is “Q4”. The figures for the inhibition at 10 µM in data set [2] and in data set [3] were -45% and 10%, respectively. For the same molecule, the “LPS % cell toxicity” value in data set [4] (rat) amounted to 0%.

As to `CN1CCC(OC(c2ccccc2)c2ccccc2)CC1` [Diphenylpyraline], the “Quadrant (FIG. 5b)” value in data set [1] is “Q4”. Also, the values for the inhibition at 10 µM in data set [2] and in data set [3] were -69% and 6%, respectively. Further, the “LPS % cell toxicity” value in data set [4] (rat) is recorded as 0%.

For `OCCN(CCO)c1nc(N2CCCCC2)c2nc(N(CCO)CCO)nc(N3CCCCC3)c2n1` [Dipyridamole], the “Quadrant (FIG. 5b)” value in data set [1] was “Q4”. The inhibition at 10 µM in data set [2] stood at 11%; in data set [3], 6%. Further, the “LPS % cell toxicity” value in data set [4] (rat) stood at 0%.

`O=C(O[C@@H]1C[C@@H]2C[C@H]3C[C@H](C1)N2CC3=O)c1c[nH]c2ccccc12` [Dolasetron]: in data set [1] (classification by fibrin and LPS inhibition, HTS at 10 μM), the “Quadrant (FIG. 5b)” value was “Q4”. The inhibition at 10 µM is -19% in data set [2] (setting [6]) and -3% in data set [3] (setting [7]). Moreover, the “LPS % cell toxicity” value in data set [4] (rat) came out at 0%.

Turning to `CNCCCC12CCC(c3ccccc31)c1ccccc12` [Maprotiline], the Fibrin % inhibition in data set [2] is recorded as −4%. Further, in data set [3], the LPS % inhibition is 78%. Moreover, in data set [4] (rat), the “LPS % cell toxicity” value is listed as 2%.

On to `CC#C[C@]1(O)CC[C@H]2[C@@H]3CCC4=CC(=O)CCC4=C3[C@@H](c3ccc(N(C)C)cc3)C[C@@]21C` [Mifepristone], for which, in data set [1] (setting [9]), the “Quadrant (FIG. 5b)” value is reported as “Q4”. In data set [2] (setting [10]), the inhibition at 10 µM turned out to be 12%. Besides, the “LPS % cell toxicity” value in data set [4] (rat) came to 0%.

Consider `CN1CCN(CCCN2c3ccccc3Sc3ccc(Cl)cc32)CC1` [Prochlorperazine], for which the inhibition at 10 µM in data set [2] stood at 6%; in data set [3] (48 h), 17%. In addition, the “LPS % cell toxicity” value in data set [4] (rat) was 1%.

Regarding `Cn1nnc2c(C(N)=O)ncn2c1=O` [Temozolomide], the “Quadrant (FIG. 5b)” value in data set [1] (setting [14]) is on record as “Q4”. Besides, the Fibrin % inhibition in data set [2] (primary microglia HTS, 10 μM, fibrin-stimulated, cell size >800 μm^2 as marker of activation) was −31% and −26%. In addition, the “LPS % cell toxicity” value in data set [4] (rat) turned out to be 0%.

As to `CCCc1nc(C)c2c(=O)[nH]c(-c3cc(S(=O)(=O)N4CCN(CC)CC4)ccc3OCC)nn12` [Vardenafil], the “Quadrant (FIG. 5b)” value in data set [1] (setting [14]) is reported as “Q4”. In data set [3] (setting [15]), the inhibition at 10 µM is 12% and the LPS % inhibition is listed as 13%. The “LPS % cell toxicity” value in data set [4] (rat) was 0%.

For orientation: inhibition means the relative decrease from the control value, in per cent.
